Laboratory results taken from patent US12440495B2, “Combination therapy for treatment of myeloproliferative neoplasms” (Incyte Corporation, priority 2020, dated 2025).
Read-outs that look alike come from different tables or passages of the source.

Experiments:
HEL cells = test: JAK2 V617F expressing HEL xenograft model of erythroleukemia; type: in vivo; settings: 14 days
Method: For efficacy studies, measurements of tumors were taken every 2 to 3 days using a digital caliper. Tumor volumes were calculated using the formula: Volume=(length×width2)/2 where width was the smaller dimension. Body weights were also monitored.
Animals were sacrificed (1) at end of study, (2) if tumor size reached 10% of total body weight, or (3) if 20% of body weight is lost.
Statistical analyses were performed using Prism Graphpad software. All comparisons were done using 2-way ANOVA with p<0.05 deemed significant.
Female SCID mice were subcutaneously inoculated with 10^7 HEL cells in matrigel. When tumors reached approximately 160 mm^3, mice (n=10 per group) were dosed orally with Compound 1 for 14 days as follows: • 1. BID at either 1 or 3 mg/kg, or vehicle control • 2. QD at 3, 10, or 30 mg/kg

[1] = Clinical pharmacokinetics of Compound 1 monotherapy, Phase 1/2, advanced malignancies; type: in vivo, human
Method: The clinical PK of Compound 1 in participants with advanced malignancies (solid and hematologic malignancies) were evaluated in a Phase 1/2, open-label, dose-escalation/dose-expansion, safety and tolerability study. Participants received continuous QD doses of Compound 1. As of the data cutoff date (23 Sep. 2019), 25, 101, and 8 participants who received 8 mg, 12 mg, and 16 mg, respectively, across Part 1 and Part 2 (Compound 1 treated as monotherapy) have been assessed for PK. The PK parameters of parent Compound 1 are summarized in Table 2 and Table 3 (see FIG. 5). Table 2 presents a summary of Compound 1 pharmacokinetic parameters for Compound 1 as monotherapy (part 1 and 2) at cycle 1 day 1. Table 3 presents a summary of Compound 1 pharmacokinetic parameters for Compound 1 as monotherapy (part 1 and 2) at steady-state (cycle 1 day 8).
Blood samples for the determination of plasma concentrations of Compound 1 in Parts 1 and 2 were collected at predose on Cycle 1 Day 1, Cycle 1 Day 2, and Cycle 1 Day 8, and at 0.5, 1, 2, 4, 6, and 8 hours on Cycle 1 Day 1 and Cycle 1 Day 8. The plasma samples of Compound 1 were assayed by a validated LC-MS/MS method.

[2] = system: cMyc, a BRD4 target gene, in KMS12BM cells; test: Ex vivo pharmacodynamic spiked cell assay, cMyc protein in KMS12BM cells in participant plasma; type: cell-based, human; settings: for inhibition of cMyc at trough: Cycle 1 Day 8 predose; for average cMyc inhibition at steady state: Day 8, predose to 8 hours
Method: Pharmacodynamic analysis was performed using an ex vivo assay measuring protein levels of cMyc, a BRD4 target gene, in KMS12BM cells, which were spiked into participant plasma samples collected at predose and various postdose timepoints. […] The average cMyc inhibition at steady state (Day 8, from predose to 8 hours) was 30%, 44%, and 65% for the dose of 8 mg (n=11), 12 mg (n=51), and 16 mg (n=7), respectively. […] Inhibition of cMyc was reduced to <10% at trough (Cycle 1 Day 8 predose) in the 8-mg and 12-mg cohorts and ˜30% in the 16-mg cohort.

[3] = Treatment-emergent adverse events and exposure-safety analysis, Compound 1 monotherapy; type: in vivo, human; settings: for predicted probability of hyperglycemia incidence: from AUC-hyperglycemia relationship; for AUC: human, plasma, oral
Method: The selected clinical safety endpoints as deemed appropriate (eg, frequently occurring TEAEs (treatment-emergent adverse events), incident rate >20% for all AEs (adverse events) and clinically notable adverse events) were used to evaluate exposure-safety relationships. The safety data from a total of […] participants (including both solid tumors and hematologic malignancies) receiving monotherapy treatment of Compound 1 (n=10 at 8 mg, n=89 at 12 mg, and n=8 at 16 mg) in Parts 1 and 2 were used for analysis.
No statistically significant correlation was identified for steady-state Compound 1 AUC and any TEAEs or clinically notable AEs evaluated in this analysis, except hyperglycemia (p-value<0.05). […] Lack of correlation between Compound 1 AUCss.0-24 and TEAEs could be due to the narrow dose range (8, 12, or 16 mg) explored in this study and small sample sizes in the 8-mg and 16-mg groups of the study (the majority of participants received 12 mg).

myelofibrosis [4] = test: Clinical efficacy in myelofibrosis participants (NCT04279847); type: in vivo, human
Method: This is a Phase 1, open-label, 2-part study of Compound 1 as monotherapy in participants with relapsed or refractory myelofibrosis (for further details see “Safety and Tolerability Study of INCB057643 in Participants With Myelofibrosis”, ClinicalTrials.gov Identifier: NCT04279847, which is incorporated herein by reference in its entirety). INCB057643 is also referred to as Compound 1 in the present disclosure. […] Participants will receive 4 mg QD of Compound 1 on a continuous basis.
A first participant and a second participant had relapsed myelofibrosis which was treated with Compound 1 monotherapy. A third participant was being treated with single-agent ruxolitinib but having suboptimal responses.

SET-2 cells = test: SET-2 xenograft model; settings: for tumor growth inhibition: Compound 1 10 mg/kg QD, or both, oral; for Fa (tumor growth inhibition level), SET-2: table head: ruxolitinib 60 mg/kg BID, Compound 1 10 mg/kg QD, combination
[5] = system: MPLW515L expressing bone marrow; test: MPLW515L mouse model of MPN; settings: Compound 1 10 mg/kg QD; for spleen size / white blood cell count: ruxolitinib 60 mg/kg BID, or both, oral, 14 days
myelofibrosis [6] = settings: ruxolitinib monotherapy in clinical trials; cited from earlier work
[7] = monotherapy 8, 12 or 16 mg, all grades and causality
[8] = ruxolitinib 30 mg/kg BID, 14 days
[9] = ruxolitinib 60 mg/kg BID, combination

Compound: CN1C(=O)C(C)(C)Oc2c(-c3cn(C)c(=O)c4[nH]ccc34)cc(S(C)(=O)=O)cc21 [Compound 1, 2,2,4-trimethyl-8-(6-methyl-7-oxo-6,7-dihydro-1H-pyrrolo[2,3-c]pyridin-4-yl)-6-(methylsulfonyl)-2H-1,4-benzoxazin-3(4H)-one]
- tumor regression (HEL cells; 30 mg/kg QD oral): one statistical tumor regression
- tolerability (body weight loss) (HEL cells; all doses, oral): All doses were tolerated
- tumor growth (mean tumor volume) vs vehicle (HEL cells; oral, 1 or 3 mg/kg BID, 3, 10 or 30 mg/kg QD, p<0.02 each group): inhibited tumor growth in a dose-related manner
- Tmax, median ([1]; 8 mg QD, cycle 1 day 1, N = 12): 2.00 h
- dose proportionality of steady-state Cmax and AUC0-24 ([1]; 8 to 16 mg QD): proportional to dose
- steady-state oral clearance, geometric mean CLss/F ([1]; 8 to 16 mg QD): 9.92 to 10.7 L/h
- AUC(0-t) ([1]; human, plasma, oral, 2 mg, 2 mg QD, linear PK extrapolation from 12 mg QD, read-out: estimated steady-state AUC0-24): 0.457 µM·h
- AUC(0-t) ([1]; human, plasma, oral, 4 mg, 4 mg QD, linear PK extrapolation from 12 mg QD, read-out: estimated steady-state AUC0-24): 0.913 µM·h
- AUC(0-t) ([1]; human, plasma, oral, 8 mg, 8 mg QD, cycle 1 day 1, N = 12, read-out: AUClast, geometric mean (CV %)): 2.09 µM·h
- AUC(0-t) ([1]; human, plasma, oral, 8 mg, 8 mg QD, cycle 1 day 1, N = 12, read-out: AUClast, mean ± SD): 2.31 ± 1.12 µM·h
- Cmax ([1]; human, plasma, oral, 8 mg, 8 mg QD, cycle 1 day 1, N = 12, read-out: Cmax, geometric mean (CV %)): 188 nM
- Cmax ([1]; human, plasma, oral, 8 mg, 8 mg QD, cycle 1 day 1, N = 12, read-out: Cmax, mean ± SD): 201 ± 83.6 nM
- AUC(0-t) ([1]; human, plasma, oral, 12 mg, 12 mg QD, cycle 1 day 1, N = 99, read-out: AUClast, geometric mean (CV %)): 2.55 µM·h
- AUC(0-t) ([1]; human, plasma, oral, 12 mg, 12 mg QD, cycle 1 day 1, N = 99, read-out: AUClast, mean ± SD): 2.74 ± 1.09 µM·h
- Cmax ([1]; human, plasma, oral, 12 mg, 12 mg QD, cycle 1 day 1, N = 99, read-out: Cmax, geometric mean (CV %)): 249 nM
- Cmax ([1]; human, plasma, oral, 12 mg, 12 mg QD, cycle 1 day 1, N = 99, read-out: Cmax, mean ± SD): 266 ± 94.7 nM
- AUC(0-t) ([1]; human, plasma, oral, 12 mg, 12 mg QD, read-out: steady-state AUC0-24, geometric mean): 2.74 µM·h
- Cmax ([1]; human, plasma, oral, 12 mg, 12 mg QD, read-out: steady-state Cmax, geometric mean): 272 nM
- AUC(0-t) ([1]; human, plasma, oral, 16 mg, 16 mg QD, cycle 1 day 1, N = 7, read-out: AUClast, geometric mean (CV %)): 3.21 µM·h
- AUC(0-t) ([1]; human, plasma, oral, 16 mg, 16 mg QD, cycle 1 day 1, N = 7, read-out: AUClast, mean ± SD): 3.37 ± 1.06 µM·h
- Cmax ([1]; human, plasma, oral, 16 mg, 16 mg QD, cycle 1 day 1, N = 7, read-out: Cmax, geometric mean (CV %)): 329 nM
- Cmax ([1]; human, plasma, oral, 16 mg, 16 mg QD, cycle 1 day 1, N = 7, read-out: Cmax, mean ± SD): 343 ± 93.2 nM
- Tmax ([1]; human, plasma, oral, 12 mg QD, cycle 1 day 1, N = 99, read-out: Tmax, median): 0.5 h
- half-life ([1]; human, plasma, oral, 12 mg QD, steady-state, read-out: t1/2, geometric mean (converted)): 9.17 h
- AUC ([1]; human, plasma, oral, 16 mg QD, read-out: steady-state AUC, geometric mean): 3.61 µM·h
- Vd/F ([1]; human, plasma, oral, 8 to 16 mg QD, read-out: volume of distribution, geometric mean Vz/F): 138 to 197 L
- Tmax ([1]; human, plasma, oral, multiple-dose, fasted state, 8 to 16 mg QD, read-out: median Tmax): 1 to 2 h
- half-life ([1]; human, plasma, oral, multiple-dose, not dose-dependent, read-out: steady-state geometric mean half-life (converted)): ~10 h
- accumulation of exposure (steady-state AUC0-24 vs first dose AUC0-24) ([1]; once daily dosing): < 10%
- time to steady-state (predicted) ([1]; once daily dosing, based on effective half-life of 10 hours): 2 days
- inhibition of cMyc at trough ([2]; 8 mg): < 10%
- average cMyc inhibition at steady state ([2]; 8 mg, n=11): 30%
- inhibition of cMyc at trough ([2]; 12 mg): < 10%
- average cMyc inhibition at steady state ([2]; 12 mg, n=51): 44%
- inhibition of cMyc at trough ([2]; 16 mg): ~30%
- average cMyc inhibition at steady state ([2]; 16 mg, n=7): 65%
- IC50 ([2]; Homo sapiens, KMS-12-BM, 70 participants, nonlinear regression, plasma concentration, read-out: IC50 (ex vivo, composite PK PD curve)): 202 nM
- predicted probability of hyperglycemia incidence ([3]; 2 mg): 8.0%
- predicted probability of hyperglycemia incidence ([3]; 4 mg): 9.2%
- AUCss,0-24, fourth quartile ([3]; FIG. 8, monotherapy 8-16 mg QD): 3.61 µM·h
- AUCss,0-24, second quartile ([3]; FIG. 8, monotherapy 8-16 mg QD): 2.07 µM·h
- AUCss,0-24, third quartile ([3]; FIG. 8, monotherapy 8-16 mg QD): 2.62 µM·h
- AUC ([3]; 12 mg, participant 1011, Grade 4 gastrointestinal hemorrhage, 12 mg QD, read-out: AUCss,0-24 of individual participant): 3.47 µM·h
- AUC ([3]; 12 mg, participant 9002, Grade 4 gastrointestinal hemorrhage, 12 mg QD, read-out: AUCss,0-24 of individual participant): 3.61 µM·h
- AUC ([3]; 12 mg, participant 12005, Grade 3 INR increased, 12 mg QD, concomitant warfarin, read-out: AUCss,0-24 of individual participant): 6.99 µM·h
- AUC ([3]; 16 mg, participant 16001, Grade 3 INR increased, 16 mg QD, concomitant warfarin, read-out: AUCss,0-24 of individual participant): 9.77 µM·h
- AUC ([3]; FIG. 8, monotherapy 8-16 mg QD, read-out: AUCss,0-24, first quartile): 0.893 to 2.04 µM·h
- clinically notable AE incidence: INR increased ([3]; monotherapy 8, 12 or 16 mg): 8.5%
- clinically notable AE incidence: epistaxis ([3]; monotherapy 8, 12 or 16 mg): 9.9%
- clinically notable AE incidence: gastrointestinal hemorrhage ([3]; monotherapy 8, 12 or 16 mg): 1.9%
- clinically notable AE incidence: hyperglycemia ([3]; monotherapy 8, 12 or 16 mg): 17.4%
- TEAE incidence: anemia [3, 7]: 27.3%
- TEAE incidence: constipation [3, 7]: 20.7%
- TEAE incidence: decreased appetite [3, 7]: 35.5%
- TEAE incidence: diarrhea [3, 7]: 27.3%
- TEAE incidence: dysgeusia [3, 7]: 19.8%
- TEAE incidence: fatigue [3, 7]: 45.5%
- TEAE incidence: nausea [3, 7]: 47.9%
- TEAE incidence: thrombocytopenia [3, 7]: 28.9%
- TEAE incidence: vomiting [3, 7]: 28.1%
- AUCss,0-24 of individual participant ([3]; participant 9002, Grade 4 gastrointestinal hemorrhage, 12 mg QD): 2.15 µM·h
- AUCss,0-24 of individual participant ([3]; participant 16001, Grade 3 INR increased, 16 mg QD, concomitant warfarin): 9.79 µM·h
- spleen length reduction by spleen palpation (myelofibrosis [4]; first participant, monotherapy 12 mg QD, nadir vs baseline): 92.5%
- clinical outcome (myelofibrosis [4]; second participant, monotherapy 8 mg QD, on study 24 days): only disease progression
- tumor growth inhibition (SET-2 cells; [8]): significantly inhibited tumor growth
- Fa (tumor growth inhibition level), SET-2 (SET-2 cells): 0.24
- spleen size [5]: able to reduce spleen size
- white blood cell count [5]: able to slow the expansion of white blood cells
- Fa (fraction affected, change vs vehicle), MPL SPL [5, 9]: 0.5558
- MPL SPL (sizes of the spleens) [5, 9]: 0.3611 grams

Compound: N#CC[C@H](C1CCCC1)n1cc(-c2ncnc3[nH]ccc23)cn1 [ruxolitinib, (3R)-3-cyclopentyl-3-[4-(7H-pyrrolo[2,3-d]pyrimidin-4-yl)-1H-pyrazol-1-yl]propanenitrile]
- reduction in spleen size (myelofibrosis [6]): about 35%
- tumor growth inhibition (SET-2 cells; [8]): significantly inhibited tumor growth
- tumor growth inhibition (SET-2 cells; ruxolitinib 60 mg/kg BID, 11 days): significant tumor growth inhibition
- Fa (tumor growth inhibition level), SET-2 (SET-2 cells): 0.44
- spleen size [5]: able to reduce spleen size
- white blood cell count [5]: more profound effect on white blood cell count reduction than Compound 1
